Assay results taken from patent publication US12404252B2, “Salt of 2-amino-2-(2-(1-decyl-1H-1,2,3-triazol-4-yl)ethyl)propane-1,3-diol, and pharmaceutical composition containing same” (NEXTGEN BIOSCIENCE CO., LTD, priority 2021, dated 2025).
In brackets after ≈: the same amount, converted by molar mass. Several values for one entry are separate records, joined by “and”; a condition that tells them apart may be missing. Identical values can stand only once.

Assays:
[1] = tested on: T cells, CD4 T cells, and CD8 T cells; experiment: Inhibitory effect against rat immune cells (FACS after oral administration); format: in vivo; settings: SD rats
Protocol: In order to evaluate the effect of Compound 1a on rat immune cells, Compound 1a was administered orally to SD rats at 10 mg/kg/day, and then lymphocytes in peripheral blood (PB) and bone marrow (BM) were classified into T cells, CD4 T cells, and CD8 T cells. FACS analysis was performed 0, 4, 8, 12, 24, 36, and 48 hours after administration of the test substance. Cell number was measured and expressed as a percentage relative to that at time 0 (% of control). The numbers of T cells, CD4 T cells, and CD8 T cells were measured and expressed as percentages relative to those at time 0 (% of control).

[2] = Photostability test; format: physicochemical
Protocol: For a photostability test, 10 mg of Compound 1a was exposed to 1.2 million lux hours of ultraviolet and visible light at room temperature. For an oxidation stability test, 0.2 mL of 30% H2O2 and 1 mg of Compound 1a were placed in a 2-mL vial and stored at 25° C. for up to 24 hours. The photostability and oxidation stability conditions used to evaluate the fumarate salt of Compound 1 and the evaluation results are as follows.

[3] = tested on: alopecia areata model (C3H/HeJ); experiment: Alopecia areata model (C3H/HeJ); format: in vivo; settings: C3H/HeJ mice, 30 mg/kg orally, 12 weeks
Protocol: The efficacy of Compound 1a against alopecia areata was evaluated using a model (C3H/HeJ) with spontaneous alopecia areata. The C3H/HeJ mice used in the test are animals that spontaneously develop alopecia areata with increasing age. […] 30 mg/kg of Compound 1a was administered orally to the mice for 12 weeks, and then disease-free ratio and AA lesion area were measured.

[4] = tested on: dextran sulfate sodium (DSS)-induced colitis model; experiment: DSS-induced colitis mouse model, disease activity index; format: in vivo; settings: DSS mice
Protocol: The effectiveness of Compound 1a against inflammatory bowel disease was evaluated using the dextran sulfate sodium (DSS)-induced colitis model. In the mouse model, inflammatory bowel disease was induced by administering DSS to mice at a concentration of 2.5% via drinking water. Mice were divided into a test group administered Compound 1a, a positive control group administered ozanimod or MTX (methotrexate), a vehicle group, and a normal control group, and each group had n=10. Compound 1, a compound of the present invention, was orally administered at doses of 5 and 10 mg/kg once a day for 7 days to the inflammatory bowel disease-induced model, and ozanimod as a positive control was administered orally at a dose of 5 mg/kg once a day, and MTX (methotrexate) as a positive control was administered intraperitoneally at a dose of 3 mg/kg three times a week.
DAI represents the total score of weight loss relative to initial weight, stool consistency, and degree of intestinal bleeding of the mouse. The criteria for calculation of DAI are shown in Table 10 below, and DAI was evaluated on days 0, 1, 2, 3, 4, 5, 6, 7, and 8.

[5] = Solubility in aqueous media (HPLC); format: physicochemical; settings: for solubility at 24 h: thermodynamic from solid
Protocol: The solubility of Compound 1a prepared in Example 1 was evaluated in several different media, including pH 1.2 hydrochloric acid buffer, pH 3.0 citrate buffer, pH 4.7 acetate buffer, pH 6.8 phosphate buffer, simulated gastric fluid, fasted-state simulated intestinal fluid, fed-state simulated intestinal fluid, and water. About 2.17 mg of sample (based on the free base of Compound 1) for each medium was taken into a 2-mL transparent glass vial and […] of medium was added (constituents of the salt were considered Compound 1: counterion=1:0.5; target concentration: 2 mg/mL). The mixture was stirred using a magnetic stirrer at 250 RPM for 24 hours at 25° C. Next, the pH and appearance of the mixture were recorded and the mixture was filtered through a MultiScreen® HTS-HV 96-well plate (manufactured by Merck; 0.45-μm hydrophilic, low-protein-binding Durapore® membrane). Solubility was determined using HPLC, and a calibration curve was created by injecting a known concentration of Compound 1a. The filtered sample was injected (diluted appropriately as necessary) and the concentration of Compound 1a (mg/mL) in the filtrate was calculated from the calibration curve (taking salt coefficient into account). The analysis results are as follows.

[6] = tested on: unilateral ureteral obstruction (UUO) model; experiment: Unilateral ureteral obstruction (UUO) renal fibrosis model; format: in vivo; settings: UUO mice, 2 weeks
Protocol: The antifibrotic effect of Compound 1a in renal disease was evaluated using the unilateral ureteral obstruction (UUO) model, which is a renal fibrotic disease model. Kidney fibrosis was induced by unilateral ureteral obstruction of mice, and then Compound 1a at 10, 30, and 90 mg/kg/day and the positive control substance telmisartan at 30 mg/kg/day were orally administered to the mice once a day for 2 weeks.

[7] = tested on: adenine-induced chronic kidney disease model; experiment: Adenine-induced chronic kidney disease model; format: in vivo; settings: adenine-induced CKD mice, 3 weeks
Protocol: The antifibrotic effect of Compound 1a was evaluated using an adenine-induced chronic kidney disease model. 0.5% adenine (in 0.5% CMC) was orally administered to mice for 4 weeks to induce chronic kidney disease, and Compound 1a at 10, 30, and 90 mg/kg/day and the positive control substance telmisartan 10 mg/kg/day were administered orally to the mice for 3 weeks, followed by measurement of serum creatinine, serum BUN, and kidney hydroxyproline, and histopathology. In addition, the tubular-interstitial index value was determined based on the above measurement results.

[8] = Standard stock solution stability, 60° C./75±5% RH; format: physicochemical; settings: 60° C./75% RH, Initial
Protocol: The stability of the crystalline compound was under 60° C./75±5% RH conditions, and the purity thereof was examined by HPLC method. The experimental conditions used in the stability test for Compound 1a and the test results are as follows.
60° C./75±5% RH: Conditions in which the vial was open and upright.
A required amount (˜1 mg) of solid material was dissolved in 1 mL of a diluent (1:1 methanol/water), and the prepared solution was analyzed by HPLC.

With `CCCCCCCCCCn1cc(CCC(N)(CO)CO)nn1` [Compound 1a, 2-amino-2-(2-(1-decyl-1H-1,2,3-triazol-4-yl)ethyl) propane-1,3-diol] the “change of cell number in bone marrow (BM)” value [1] was “no change or a tendency to increase”, the “inhibitory effect on number of T cells in peripheral blood (PB)” value ([1]; dose-dependent, doses of the three values not given) was 70% and 80% and 87% and the Purity % ([2]; Photostability 1.2 million lux hours exposed) was 99.52%. For the same compound, the Purity % ([2]; Photostability 1.2 million lux hours unexposed) was 99.70%, the “body weight versus control group” value [3] was “no significant difference” and the “days when 100% alopecia areata was observed” value [3] was 84 days. The “clinical indicators (weight loss, stool consistency, intestinal bleeding) versus ozanimod” value ([4]; 5 mg/kg orally) was “equivalent to or higher than those of ozanimod”, the “clinical indicators (weight loss, stool consistency, intestinal bleeding) versus ozanimod” value ([4]; 10 mg/kg orally) was “equivalent to or higher than those of ozanimod” and the Visual observation ([5]; 0.5% Methylcellulose, target 2 mg/mL) was “Clear solution”. For the same compound, the solubility at 24 h ([5]; 25 °C, all of the aqueous media except phosphate buffer (pH 6.8)) was greater than 2000 µg/mL, the Visual observation ([5]; FaSSIF (pH 6.5), target 2 mg/mL) was “Clear solution” and the Visual observation ([5]; FeSSIF (pH 5.8), target 2 mg/mL) was “Clear solution”. The Visual observation ([5]; SGF (pH 2.0), target 2 mg/mL) was “Clear solution”, the Visual observation ([5]; Water, target 2 mg/mL) was “Clear solution” and the solubility at 24 h ([5]; aqueous buffer, pH 3.0 Citrate buffer, 25° C., 24 hours, final pH 3.42) was greater than 2000 µg/mL. The solubility at 24 h ([5]; aqueous buffer, pH 4.7 Acetate buffer, 25° C., 24 hours, final pH 5.11) was greater than 2000 µg/mL, the solubility at 24 h ([5]; aqueous buffer, pH 6.8 Phosphate buffer, 25° C., 24 hours, final pH 6.94) was 306 µg/mL (≈ 0.937 mM) and the solubility at 24 h ([5]; aqueous with cosolvent or surfactant or cyclodextrin, 0.5% Methylcellulose, 25° C., 24 hours, final pH 6.04) was greater than 2000 µg/mL. The Visual observation ([5]; pH 1.2 HCl buffer, target 2 mg/mL) was “Clear solution”, the Visual observation ([5]; pH 3.0 Citrate buffer, target 2 mg/mL) was “Clear solution” and the Visual observation ([5]; pH 4.7 Acetate buffer, target 2 mg/mL) was “Clear solution”. The Visual observation ([5]; pH 6.8 Phosphate buffer, target 2 mg/mL) was “White suspension”, the solubility at 24 h ([5]; simulated gastric fluid, SGF (pH 2.0), 25° C., 24 hours, final pH 3.02) was greater than 2000 µg/mL and the solubility at 24 h ([5]; simulated gastric fluid, pH 1.2 HCl buffer, 25° C., 24 hours, target 2 mg/mL, final pH 1.75) was greater than 2000 µg/mL. For the same compound, the solubility at 24 h ([5]; FaSSIF (pH 6.5), 25° C., 24 hours, final pH 6.60) was greater than 2000 µg/mL, the solubility at 24 h ([5]; FeSSIF (pH 5.8), 25° C., 24 hours, final pH 5.97) was greater than 2000 µg/mL and the solubility at 24 h ([5]; Water, 25° C., 24 hours, final pH 6.04) was greater than 2000 µg/mL. The Kidney hydroxyproline ([6]; 10 mg/kg/day orally) was “statistically significantly decreased”, the Kidney hydroxyproline ([6]; 30 mg/kg/day orally) was “statistically significantly decreased” and the Kidney hydroxyproline ([6]; 90 mg/kg/day orally) was “statistically significantly decreased”. For the same compound, the “Kidney hydroxyproline (second statement, 'in particular', p<0.05)” value ([6]; 90 mg/kg/day orally) was “statistically significantly decreased”, the “kidney hydroxyproline level compared to control group” value ([7]; 30 mg/kg/day orally) was “statistically significantly decreased” and the “kidney fibrosis (tubular-interstitial index)” value ([7]; 90 mg/kg/day orally) was “statistically significantly decreased”. The “serum BUN level” value ([7]; 90 mg/kg/day orally) was 157.4 ± 32.3 mg/dL, the serum creatinine level ([7]; 90 mg/kg/day orally) was 0.90 ± 0.12 mg/dL and the Purity % [8] was 99.11%.
